# Values of other authors in patent US20120289567A1, “COMBINATIONS OF DARIFENACIN AND SALIVARY STIMULANTS FOR THE TREATMENT OF OVERACTIVE BLADDER” (THERAVIDA, INC., priority 2011, published 2012).
# Conditions: 5 mg of pilocarpine
smiles,measurement,value
CC[C@@H]1C(=O)OC[C@@H]1Cc1cncn1C [pilocarpine],time of maximum saliva output after administration,about 30 minutes
